Experimental findings from patent US10758534B2 (Vertex Pharmaceuticals Incorporated, priority 2014, dated 2020) are described below.

T1 sequence (P13569 with tags, fused parts or gaps DEL508-508): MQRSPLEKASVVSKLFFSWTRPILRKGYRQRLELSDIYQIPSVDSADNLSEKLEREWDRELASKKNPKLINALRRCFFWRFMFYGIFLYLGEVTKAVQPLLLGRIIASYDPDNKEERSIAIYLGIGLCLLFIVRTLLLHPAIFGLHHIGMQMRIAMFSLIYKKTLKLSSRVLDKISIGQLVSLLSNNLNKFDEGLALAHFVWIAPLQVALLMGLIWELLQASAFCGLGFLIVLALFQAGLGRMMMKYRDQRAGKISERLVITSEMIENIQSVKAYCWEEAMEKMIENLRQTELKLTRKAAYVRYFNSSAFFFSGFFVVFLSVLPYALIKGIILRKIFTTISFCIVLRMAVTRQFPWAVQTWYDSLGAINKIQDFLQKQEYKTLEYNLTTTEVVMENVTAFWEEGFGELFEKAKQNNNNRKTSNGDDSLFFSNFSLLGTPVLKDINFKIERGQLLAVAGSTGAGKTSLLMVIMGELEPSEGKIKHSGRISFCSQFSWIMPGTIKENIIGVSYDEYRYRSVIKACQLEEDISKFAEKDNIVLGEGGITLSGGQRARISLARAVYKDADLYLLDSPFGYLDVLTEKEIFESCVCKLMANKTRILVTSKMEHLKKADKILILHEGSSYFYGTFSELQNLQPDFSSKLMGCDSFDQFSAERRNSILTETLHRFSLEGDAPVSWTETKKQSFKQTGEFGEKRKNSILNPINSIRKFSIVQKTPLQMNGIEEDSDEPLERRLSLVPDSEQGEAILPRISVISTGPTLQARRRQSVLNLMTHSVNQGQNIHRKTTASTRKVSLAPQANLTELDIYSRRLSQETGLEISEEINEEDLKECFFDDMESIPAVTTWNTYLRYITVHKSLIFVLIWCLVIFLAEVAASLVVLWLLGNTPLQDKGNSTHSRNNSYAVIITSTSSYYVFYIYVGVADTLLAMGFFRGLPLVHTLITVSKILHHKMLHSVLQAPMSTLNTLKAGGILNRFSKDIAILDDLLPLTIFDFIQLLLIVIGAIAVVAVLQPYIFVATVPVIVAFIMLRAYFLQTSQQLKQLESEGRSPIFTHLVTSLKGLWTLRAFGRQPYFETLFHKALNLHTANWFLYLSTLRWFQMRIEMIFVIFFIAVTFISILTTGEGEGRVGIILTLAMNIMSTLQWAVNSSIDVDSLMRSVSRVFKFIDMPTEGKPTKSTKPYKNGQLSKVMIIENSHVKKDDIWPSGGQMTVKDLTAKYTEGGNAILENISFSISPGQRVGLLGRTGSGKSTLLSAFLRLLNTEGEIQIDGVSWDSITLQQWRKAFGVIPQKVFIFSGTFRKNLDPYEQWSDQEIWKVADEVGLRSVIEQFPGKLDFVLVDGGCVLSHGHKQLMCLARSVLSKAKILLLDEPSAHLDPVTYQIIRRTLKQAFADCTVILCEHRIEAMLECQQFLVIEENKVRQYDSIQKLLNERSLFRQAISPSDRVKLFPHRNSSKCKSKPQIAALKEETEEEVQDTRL

The first assay concerns the target T1, F508del (Homo sapiens, UniProt P13569, DEL508-508).
T1 construct: expressed in transfected cells
Nature of the assay: Protocol 2: FRET membrane potential optical assay (VIPR), identification of correction compounds. The format is cell-based. The conditions noted are these: F508del CFTR modulator activity; compounds of Table 1; read-out: EC30. The method, boiled down:
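Mouse NIH3T3 cells, stable F508del; cpd 16 hrs, 37° C., serum-free; pos ctrl 27° C. 16 hrs. Rinse in Krebs Ringers, dye load, then add 10 μM forskolin + 20 μM genistein with Cl^−-free (gluconate) medium; depolarization by FRET voltage dyes.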
On to `Cc1cc(OCC(C)C)nn1-c1ccc(C(=O)NS(=O)(=O)c2cccnc2N)c(N2C[C@@H](C)CC2(C)C)n1` [Compound 2238, N-[(2-amino-3-pyridyl)sulfonyl]-6-(3-isobutoxy-5-methyl-pyrazol-1-yl)-2-[(4S)-2,2,4-trimethylpyrrolidin-1-yl]pyridine-3-carboxamide], for which the EC30 is under 3000 nM.
In the case of `C[C@@H]1CN(c2nc(-c3ccccc3)ccc2C(=O)NS(=O)(=O)c2ccc[nH]c2=O)C(C)(C)C1` [Compound 2445, N-[(2-oxo-1H-pyridin-3-yl)sulfonyl]-6-phenyl-2-[(4S)-2,2,4-trimethylpyrrolidin-1-yl]pyridine-3-carboxamide], the EC30 is under 3000 nM.
With `CC1CN(c2ncccc2C(=O)NS(=O)(=O)c2cccc(Nc3cccc4ccccc34)n2)C(C)(C)C1` (centres unmarked) [Compound 2136, N—[[6-(1-naphthylamino)-2-pyridyl]sulfonyl]-2-(2,2,4-trimethylpyrrolidin-1-yl)pyridine-3-carboxamide], the EC30 was under 3000 nM.
The same measure, in the same setting: next, `CC(C)(C)c1ccc(C(=O)NS(=O)(=O)c2cccc(N)n2)c(N2CCC(C3CC3)C2(C)C)n1` (single isomer, unassigned) [Compound 2022, N-[(6-amino-2-pyridyl)sulfonyl]-6-tert-butyl-2-(3-cyclopropyl-2,2-dimethyl-pyrrolidin-1-yl)pyridine-3-carboxamide]: under 3000 nM.

Still in this assay, the particulars now being: Table 3; compounds of Table 1 as modulators of CFTR activity; protocol not stated.
Consider `Cc1cc(C)c(Oc2ccc(C(C)(C)C)nc2C(=O)NS(=O)(=O)c2cccc(N)c2)c(C)c1` [Compound 106, N-(3-aminophenyl)sulfonyl-6-tert-butyl-3-(2,4,6-trimethylphenoxy)pyridine-2-carboxamide], for which the concentration for an effect of 30% (EC30) result is “+++ (“+++” means <3 uM)”.
Still for that read-out and setting: next, `CC(C)Oc1ccc(-c2ccc(C(=O)NS(=O)(=O)c3ccc[nH]c3=O)c(N3C[C@@H](C)CC3(C)C)n2)cn1` [Compound 497, 6-(6-isopropoxy-3-pyridyl)-N-[(2-oxo-1H-pyridin-3-yl)sulfonyl]-2-[(4S)-2,2,4-trimethylpyrrolidin-1-yl]pyridine-3-carboxamide]: “+++ (“+++” means <3 uM)”.

A further assay deals with T1, F508del. The experiment in a line: Protocol 1: membrane potential optical assay (FLIPR III, voltage sensing dye), identification of potentiator compounds. The format is cell-based. The conditions noted are these: Table 3, compounds of Table 1. From the text:
Membrane Potential Optical Methods for Assaying F508del Modulation Properties of Compounds
The assay utilizes fluorescent voltage sensing dyes to measure changes in membrane potential using a fluorescent plate reader (e.g., FLIPR III, Molecular Devices, Inc.) as a readout for increase in functional F508del in NIH 3T3 cells. The driving force for the response is the creation of a chloride ion gradient in conjunction with channel activation by a single liquid addition step after the cells have previously been treated with compounds and subsequently loaded with a voltage sensing dye.
Identification of Potentiator Compounds
To identify potentiators of F508del, a double-addition HTS assay format was developed. This HTS assay utilizes fluorescent voltage sensing dyes to measure changes in membrane potential on the FLIPR III as a measurement for increase in gating (conductance) of F508del in temperature-corrected F508del NIH 3T3 cells. The driving force for the response is a Cl^− ion gradient in conjunction with channel activation with forskolin in a single liquid addition step using a fluorescent plate reader such as FLIPR III after the cells have previously been treated with potentiator compounds (or DMSO vehicle control) and subsequently loaded with a redistribution dye.
Bath Solution #1: (in mM) NaCl 160, KCl 4.5, CaCl2 2, MgCl2 1, HEPES 10, pH 7.4 with NaOH.
Chloride-free bath solution: Chloride salts in Bath Solution #1 (above) are substituted with gluconate salts.
NIH3T3 mouse fibroblasts stably expressing F508del are used for optical measurements of membrane potential. The cells are maintained at 37° C. in 5% CO2 and 90% humidity in Dulbecco's modified Eagle's medium supplemented with 2 mM glutamine, 10% fetal bovine serum, 1×NEAA, β-ME, 1× pen/strep, and 25 mM HEPES in 175 cm^2 culture flasks. For all optical assays, the cells were seeded at ˜20,000/well in 384-well matrigel-coated plates and cultured for 2 hrs at 37° C. before culturing at 27° C. for 24 hrs. for the potentiator assay. For the correction assays, the cells are cultured at 27° C. or 37° C. with and without compounds for 16-24 hours.
Take `CC1CN(c2ncc(-c3cccc(OC(C)C)c3)cc2C(=O)NS(=O)(=O)c2cccc(N)n2)C(C)(C)C1` (centres unmarked) [Compound 1804, N-[(6-amino-2-pyridyl)sulfonyl]-5-(3-isopropoxyphenyl)-2-(2,2,4-trimethylpyrrolidin-1-yl)pyridine-3-carboxamide]: the EC30 entry was “+++ (“+++” means <3 uM)”.
Turning to `CCOCCOCCOc1cc(C)cc(-c2ccc(C(=O)NS(=O)(=O)c3cccc(N)n3)c(N3C[C@@H](C)CC3(C)C)n2)n1` [Compound 1696, N-[(6-amino-2-pyridyl)sulfonyl]-6-[6-[2-(2-ethoxyethoxy)ethoxy]-4-methyl-2-pyridyl]-2-[(4S)-2,2,4-trimethylpyrrolidin-1-yl]pyridine-3-carboxamide], the concentration for an effect of 30% (EC30) result was “+++ (“+++” means <3 uM)”.
Consider `Cc1cc(C)c(Oc2nc(-c3cccc(Cl)c3)ccc2C(=O)NS(=O)(=O)c2ccc[nH]c2=O)c(C)c1` [Compound 1095, 6-(3-chlorophenyl)-N-[(2-oxo-1H-pyridin-3-yl)sulfonyl]-2-(2,4,6-trimethylphenoxy)pyridine-3-carboxamide], for which the EC30 result was “++ (“++” means between 3 uM and 10 uM)”.
Still for that read-out and setting: next, `CC(C)COc1cc(F)cc(-c2ccc(C(=O)NS(=O)(=O)c3cccc(N)n3)c(OCCCCc3ccccc3)n2)c1` [Compound 1686, N-[(6-amino-2-pyridyl)sulfonyl]-6-(3-fluoro-5-isobutoxy-phenyl)-2-(4-phenylbutoxy)pyridine-3-carboxamide]: “+++ (“+++” means <3 uM)”; `COc1cc(-c2ccc(C(=O)NS(=O)(=O)c3cccc(N)n3)c(N3C[C@@H](C)CC3(C)C)n2)cc(C)n1` [Compound 1748, N-[(6-amino-2-pyridyl)sulfonyl]-6-(2-methoxy-6-methyl-4-pyridyl)-2-[(4S)-2,2,4-trimethylpyrrolidin-1-yl]pyridine-3-carboxamide]: “+++ (“+++” means <3 uM)”.
Same read-out and setting: next, `COc1nccc(-c2ccc(C(=O)NS(=O)(=O)c3cccc(N)n3)c(Oc3c(C)cc(C)cc3C)n2)c1Cl` [Compound 1284, N-[(6-amino-2-pyridyl)sulfonyl]-6-(3-chloro-2-methoxy-4-pyridyl)-2-(2,4,6-trimethylphenoxy)pyridine-3-carboxamide]: “+++ (“+++” means <3 uM)”; `CCOc1cccc2c1CN(Cc1c(C)cc(C)cc1C)C2(C)C(=O)NS(=O)(=O)c1ccc(O)cc1` (centres unmarked) [Compound 1453, 4-ethoxy-N-(4-hydroxyphenyl)sulfonyl-1-methyl-2-[(2,4,6-trimethylphenyl)methyl]isoindoline-1-carboxamide]: “+++ (“+++” means <3 uM)”; `CC(C)COc1cc(F)cc(-c2ccc(C(=O)NS(=O)(=O)c3cccc(O)c3)c(N3CCC(C)(C)CC3)n2)c1` [Compound 1309, 2-(4,4-dimethyl-1-piperidyl)-6-(3-fluoro-5-isobutoxy-phenyl)-N-(3-hydroxyphenyl)sulfonyl-pyridine-3-carboxamide]: “+++ (“+++” means <3 uM)”.
On to `C[C@@H]1CC[C@H](C)N1c1nc(-c2cc(F)cc(OCC3CCC3)c2)ccc1C(=O)NS(=O)(=O)c1ccc[nH]c1=O` [Compound 922, 6-[3-(cyclobutylmethoxy)-5-fluoro-phenyl]-2-[(2S,5R)-2,5-dimethylpyrrolidin-1-yl]-N-[(2-oxo-1H-pyridin-3-yl)sulfonyl]pyridine-3-carboxamide], for which the EC30 result was “+++ (“+++” means <3 uM)”.
On the same count and under the same terms, as for `CC(C)COc1cc(F)cc(-c2ccc(C(=O)NS(=O)(=O)c3cccc(N)n3)c(N3CCOCC3(C)C)n2)c1` [Compound 1267, N-[(6-amino-2-pyridyl)sulfonyl]-2-(3,3-dimethylmorpholin-4-yl)-6-(3-fluoro-5-isobutoxy-phenyl)pyridine-3-carboxamide], the entry is “+++ (“+++” means <3 uM)”; as for `CC(C)COc1cc(F)cc(-c2ccc(C(=O)NS(=O)(=O)N3CCCC(NS(C)(=O)=O)C3)c(N3CC(C)CC3(C)C)n2)c1` (centres unmarked) [Compound 1600, 6-(3-fluoro-5-isobutoxy-phenyl)-N—[[3-(methanesulfonamido)-1-piperidyl]sulfonyl]-2-(2,2,4-trimethylpyrrolidin-1-yl)pyridine-3-carboxamide], “+++ (“+++” means <3 uM)”.
Same read-out and setting: as for `Cc1ccc(-c2ccc(C(=O)NS(=O)(=O)c3cccc(N)n3)c(NCC3(C)CCOCC3)n2)cc1` [Compound 1196, N-[(6-amino-2-pyridyl)sulfonyl]-2-[(4-methyltetrahydropyran-4-yl)methylamino]-6-(p-tolyl)pyridine-3-carboxamide], the entry is “++ (“++” means between 3 uM and 10 uM)”; as for `CC(C)Oc1ccc(-c2ccc(C(=O)NS(=O)(=O)c3cccc(N)n3)c(N3CCC(C)(C)CC3)n2)cn1` [Compound 1134, N-[(6-amino-2-pyridyl)sulfonyl]-2-(4,4-dimethyl-1-piperidyl)-6-(6-isopropoxy-3-pyridyl)pyridine-3-carboxamide], “+++ (“+++” means <3 uM)”.
As to `Cc1cc(N)nc(S(=O)(=O)NC(=O)c2ccc(-c3cc(F)cc(OCC(C)C)c3)nc2N2C[C@@H](C)CC2(C)C)c1` [Compound 1472, N-[(6-amino-4-methyl-2-pyridyl)sulfonyl]-6-(3-fluoro-5-isobutoxy-phenyl)-2-[(4S)-2,2,4-trimethylpyrrolidin-1-yl]pyridine-3-carboxamide], the EC30 result was “+++ (“+++” means <3 uM)”.

As a reminder, the EC30 is the point of the concentration-response curve where the effect stands at 30%.
